Experimental data: patent US8709405B2, “Cancer vaccines containing epitopes of oncofetal antigen” (South Alabama Medical Science Foundation, priority 2002, dated 2014)

How the values were obtained:
Format in all cases: cell-based, BALB/c mouse
[1] = system: Th1 clone H1; experiment: BUdR incorporation ELISA proliferation assay, Th1 clone H1; conditions: Table 12
Protocol: (§1) The epitopes recognized by 15 iLRP-reactive T cell clones derived from either naive BALB/c mice, BALB/c mice bearing MCA1315 fibrosarcoma tumors, or from BALB/c mice immunized with either 1 or 10 μg of recombinant murine iLRP were determined by testing the proliferation of those clones to overlapping peptides spanning the region of the iLRP molecule recognized by each clone in the presence of IL-2, as a growth factor for T cells and irradiated, T cell-depleted, syngeneic spleen cells as antigen-presenting cells. Proliferation was measured through ELISA determination of 5-bromodeoxyuridine incorporation during culture.
(§2) More specifically, the epitope-specificity of the iLRP-specific Th1, Tc, and Ts clones was determined using a modification of the 5′-bromodeoxyuridine (BudR) incorporation ELISA technique described in Rohrer, J. W., A. L. Barsoum, D. L. Dyess, J. A. Tucker, and J. H. Coggin, Jr. 1999. Human breast carcinoma patients develop clonable oncofetal antigen-specific effector and regulatory T lymphocytes. J. Immunol. 162:6880, using the Biotrak BUdR incorporation assay (Amersham, Arlington Heights, Ill.). […] When the required color density was reached, the reaction was stopped by adding 25 μl of 1M sulfuric acid to each well and the plate read on a microELISA reader at 450 nm. […]

[2] = system: iLRP-specific T cell clone L4 (Tc); experiment: BUdR incorporation ELISA proliferation assay, Tc clone L4; conditions: for BudR Incorporation (A450), T cell clone L4 (Tc): Table 8, overlapping 12-mers of iLRP 136-166, 100 U/ml IL-2; for Proliferation of Tc clone L4 (in words): text on Table 8
Protocol: as §1
(§3) More specifically, the epitope-specificity of the iLRP-specific Th1, Tc, and Ts clones was determined using a modification of the 5′-bromodeoxyuridine (BudR) incorporation ELISA technique described in Rohrer, J. W., A. L. Barsoum, D. L. Dyess, J. A. Tucker, and J. H. Coggin, Jr. 1999. Human breast carcinoma patients develop clonable oncofetal antigen-specific effector and regulatory T lymphocytes. J. Immunol. 162:6880, using the Biotrak BUdR incorporation assay (Amersham, Arlington Heights, Ill.). Briefly, at the time of restimulation of the clones, a portion of the cloned T cells were assayed for proliferation to antigen-presenting cells (APC) and various iLRP peptides. The assay was performed with 10,000 viable cloned T cells/well plus […] irradiated syngeneic spleen cells (APC) plus 100 ng/well of intact iLRP/OFA protein or the various truncated iLRP/OFA proteins or the various iLRP/OFA peptides in Iscove's modified Dulbecco's medium (IMDM) containing 2 mM L-glutamine, 100 U/ml of penicillin G, 100 μg of streptomycin sulfate, and 10% fetal calf serum. The cells were cultured for a total of 48 hours. After 24 hours of culture 5′-bromodeoxyuridine was added to a final concentration of 10 μM/well. The cells were cultured for another 24 hours. At the end of the last 24 hours of incubation, the plates were centrifuged at 300×g for 10 min, and the labelling medium removed. The cells were then dried at 60° C. for 1 hour. The cells were fixed with an ethanol fixative provided in the Biotrak kit for 30 min at room temperature, fixative was removed, and the wells were coated with blocking buffer (1% protein in 50 mM Tris-HCl, 150 mM NaCl, pH 7.4) and incubated for 30 min at room temperature. The blocking buffer was removed, 100 μl of 1:100 diluted peroxidase-labelled anti-BUdR antibody was added to each well and the plates were incubated for 90 min at room temperature. The antibody solution was removed, and the wells washed three times with 300 μl/well of wash buffer. 200 μl of 3,3′, 5,5′-tetramethylbenzidine in […] DMSO was added to each well and the plate was covered and incubated at room temperature while oscillating gently for 5-30 min. When the required color density was reached, the reaction was stopped by adding 25 μl of 1M sulfuric acid to each well and the plate read on a microELISA reader at 450 nm.
(§4) Each time the assay was done, clones were stimulated by APC and intact iLRP/OFA as a positive control. Cloned T cells were also cultured in the presence of only APC in IMDM or in the presence of APC and an iLRP/OFA peptide or truncated iLRP/OFA known not to stimulate the clones being tested. These served as negative controls. In wells where BUdR was incorporated (the iLRP/OFA stimulates proliferation of the T cells), the A450 was at least 10-fold and often approximately 50-fold higher than the negative controls. Because the Ts cells always presented with apparently low affinity T cell antigen receptors, their BUdR incorporation gave A450 values about 10 times higher than the negative controls (e.g., about 0.2 vs. 0.02), but about 5 times lower than the Th1 or Tc clones (e.g., usually about 0.9). […]

[3] = system: iLRP-specific T cell clone H2 (Ts); experiment: BUdR incorporation ELISA proliferation assay, Ts clone H2; conditions: for BudR Incorporation (A450), T cell clone H2 (Ts): Table 8, overlapping 12-mers of iLRP 136-166, 100 U/ml IL-2
Protocol: as §1, §3, §4

[4] = system: iLRP-specific T cell clone H4 (Ts); experiment: BUdR incorporation ELISA proliferation assay, Ts clone H4; conditions: for BudR Incorporation (A450), T cell clone H4 (Ts): Table 8, overlapping 12-mers of iLRP 136-166, 100 U/ml IL-2
Protocol: as §1, §3, §4

[5] = system: iLRP-specific T cell clone L5 (Tc); experiment: BUdR incorporation ELISA proliferation assay, Tc clone L5; conditions: for BudR Incorporation (A450), T cell clone L5 (Tc): Table 8, overlapping 12-mers of iLRP 136-166, 100 U/ml IL-2; for Proliferative response of Tc clone L5 (in words): text on Table 8
Protocol: as §1, §3, §4

[6] = system: iLRP-specific T cell clone L1 (CD8 Ts); experiment: BUdR incorporation ELISA proliferation assay, Ts clone L1; conditions: Table 3; for BUdR Incorporation (A450) of iLRP-specific T cell clone L1 cells, Expt. 1 / BUdR Incorporation (A450) of iLRP-specific T cell clone L1 cells, Expt. 2: 100 ng/well stimulant with irradiated syngeneic spleen cells (APC), 48 h culture
Protocol: as §1, §3
(§5) Each time the assay was done, clones were stimulated by APC and intact iLRP/OFA as a positive control. Cloned T cells were also cultured in the presence of only APC in IMDM or in the presence of APC and an iLRP/OFA peptide or truncated iLRP/OFA known not to stimulate the clones being tested. These served as negative controls. In wells where BUdR was incorporated (the iLRP/OFA stimulates proliferation of the T cells), the A450 was at least 10-fold and often approximately 50-fold higher than the negative controls. Because the Ts cells always presented with apparently low affinity T cell antigen receptors, their BUdR incorporation gave A450 values about 10 times higher than the negative controls (e.g., about 0.2 vs. 0.02), but about 5 times lower than the Th1 or Tc clones (e.g., usually about 0.9).
Overlapping 12mer peptides of the first 25 amino acids of murine iLRP were produced. Thus, peptides 1-4 corresponded to amino acid residues 1-12, 5-16, 9-20 and 17-28 of murine iLRP. […]

[7] = system: iLRP-specific T cell clone H3 (Th1); experiment: BUdR incorporation ELISA proliferation assay, Th1 clone H3; conditions: for BudR Incorporation (A450), T cell clone H3 (Th1): Table 8, overlapping 12-mers of iLRP 136-166, 100 U/ml IL-2; for Response of Th1 clone H3 (in words): text on Table 8
Protocol: as §1, §3, §4

[8] = system: iLRP-specific Th1, Tc, and Ts clones; experiment: BUdR incorporation proliferation assay, comparison across iLRP-specific T cell clone types; conditions: Table 14; type of T cell clone reactive with the 12-mer
Protocol: as §1, §3, §5
Determination of the portion of the truncated iLRP/OFA protein or peptide reacted to by a given clone was done by analysis of the proliferation pattern to the various truncated proteins or peptides. […]

[9] = system: CD8 T cell clone H5 (Ts); experiment: BUdR incorporation ELISA proliferation assay, Ts clone H5; conditions: Table 4
Protocol: as §1, §2

[10] = system: Tc Clone L2; experiment: BUdR incorporation ELISA proliferation assay, Tc clone L2; conditions: Table 11
Protocol: as §1, §2

[11] = system: CD8 iLRP-specific T cell clone L6 (Tc); experiment: BUdR incorporation ELISA proliferation assay, Tc clone L6; conditions: Table 5
Protocol: as §1
More specifically, the epitope-specificity of the iLRP-specific Th1, Tc, and Ts clones was determined using a modification of the 5′-bromodeoxyuridine (BudR) incorporation ELISA technique described in Rohrer, J. W., A. L. Barsoum, D. L. Dyess, J. A. Tucker, and J. H. Coggin, Jr. 1999. Human breast carcinoma patients develop clonable oncofetal antigen-specific effector and regulatory T lymphocytes. J. Immunol. 162:6880, using the Biotrak BUdR incorporation assay (Amersham, Arlington Heights, Ill.). Briefly, at the time of restimulation of the clones, a portion of the cloned T cells were assayed for proliferation to antigen-presenting cells (APC) and various iLRP peptides. The assay was performed with 10,000 viable cloned T cells/well plus […] irradiated syngeneic spleen cells (APC) plus 100 ng/well of intact iLRP/OFA protein or the various truncated iLRP/OFA proteins or the various iLRP/OFA peptides in Iscove's modified Dulbecco's medium (IMDM) containing 2 mM L-glutamine, 100 U/ml of penicillin G, 100 μg of streptomycin sulfate, and 10% fetal calf serum. The cells were cultured for a total of 48 hours. After 24 hours of culture 5′-bromodeoxyuridine was added to a final concentration of 10 μM/well. The cells were cultured for another 24 hours. […] When the required color density was reached, the reaction was stopped by adding 25 μl of 1M sulfuric acid to each well and the plate read on a microELISA reader at 450 nm. […]

[12] = Table 7, stimulated by a.a.'s 136-166 sequence or controls

Substance	BudR Incorporation (A450), T cell clone L4 (Tc) [2]	BudR Incorporation (A450), T cell clone H2 (Ts) [3]	BudR Incorporation (A450), T cell clone H4 (Ts) [4]	BudR Incorporation (A450), T cell clone L5 (Tc) [5]	BudR Incorporation (A450), T cell clone H3 (Th1) [7]	Reactive T cell clones [8]	other results
SAAPTAQATEWV [P30 (277-288)]	–	–	–	–	–	–	Response of clone H1 (in words) [1]: responded best
iLRP truncated protein 13: truncated iLRP protein, a.a.'s 242-295; negative control	.017 A450	.017 A450	.018 A450	.016 A450	.015 A450	–	BUdR incorporation (A450), clone L4 (Tc) [2, 12]: .017 A450; BUdR incorporation (A450), clone H2 (Ts) [3, 12]: .015 A450; BUdR incorporation (A450), clone H4 (Ts) [4, 12]: .016 A450; BUdR incorporation (A450), clone L5 (Tc) [5, 12]: .015 A450; BUdR Incorporation (A450) of iLRP-specific T cell clone L1 cells, Expt. 1 [6]: .016 A450; BUdR Incorporation (A450) of iLRP-specific T cell clone L1 cells, Expt. 2 [6]: .014 A450; BUdR incorporation (A450), clone H3 (Th1) [7, 12]: .017 A450
VNLPTIALCNTD [Peptide 31-2]	.018 A450	.22 A450	.24 A450	.016 A450	.015 A450	Ts	Proliferation of Ts clone H2 (in words) ([3]; text on Table 8): proliferated equally; Proliferation of Ts clone H4 (in words) ([4]; text on Table 8): proliferated equally
QMEQYIYKRKSD [P3 (aa 33-44)]	–	–	–	–	–	–	Proliferation of clone H5 (in words) [9]: proliferated to iLRP peptides 3 and 4 equally well
TIALCNTDSPLR [Peptide 31-3]	.016 A450	.015 A450	.017 A450	.90 A450	.016 A450	Tc	Proliferative response of Tc clone L5 (in words) [5]: equal proliferative response
EEFQGEWTAPAP [P17 (225-236)]	–	–	–	–	–	–	Proliferation of CD8 Tc clone L2 (in words) [10]: proliferated identically
KLLAAGTHLGGT [Peptide 4]	–	–	–	–	–	–	Proliferation of clone L1 (in words) [6]: proliferates to a peptide contained almost entirely in peptide 4; BUdR Incorporation (A450) of iLRP-specific T cell clone L1 cells, Expt. 1 [6]: .28 A450; BUdR Incorporation (A450) of iLRP-specific T cell clone L1 cells, Expt. 2 [6]: .27 A450
SPLRYVDIAIPC [Peptide 31-5]	.91 A450	.016 A450	.016 A450	.024 A450	.95 A450	Tc & TH1	Proliferation of Tc clone L4 (in words) [2]: proliferated to peptides 31-5 and 31-6 equally; Response of Th1 clone H3 (in words) [7]: strongest response
YVDIAIPCNNKG [Peptide 31-6]	.90 A450	.015 A450	.016 A450	.015 A450	.03 A450	Tc	Proliferation of Tc clone L4 (in words) [2]: proliferated to peptides 31-5 and 31-6 equally
CNTDSPLRYVDI [Peptide 31-4]	.023 A450	.016 A450	.016 A450	.89 A450	.81 A450	Tc & TH1	Proliferative response of Tc clone L5 (in words) [5]: equal proliferative response; Response of Th1 clone H3 (in words) [7]: slightly lower response
ISSRNTGQRAVL [P14 (aa 77-88)]	–	–	–	–	–	–	Proliferation of clone L6 (in words) [11]: proliferated equally well
